{"source": "patent US8802240B2", "about": "“Uses of formulations of thyroid hormone analogs and nanoparticulate forms thereof to increase chemosensitivity and radiosensitivity in tumor or cancer cells” (Nanopharmaceuticals LLC, priority 2011, dated 2014)", "key": {"[1]": {"system": "chick chorioallantoic membrane (CAM) blood vessel branch points", "assay": "Chick chorioallantoic membrane (CAM) model of angiogenesis", "format": "in vivo", "experimental": "In vivo neovascularization was examined by methods described previously. 9-12 Ten-day-old chick embryos were purchased from SPAFAS (Preston, Conn.) and incubated at 37° C. with 55% relative humidity. A hypodermic needle was used to make a small hole in the shell concealing the air sac, and a second hole was made on the broad side of the egg, directly over an avascular portion of the embryonic membrane that was identified by candling. A false air sac was created beneath the second hole by the application of negative pressure at the first hole, causing the CAM to separate from the shell. […] Thyroid hormone, hormone analogs, FGF2 or control solvents, and inhibitors were then applied to the disks and the disks allowed to dry. The disks were then suspended in PBS and placed on growing CAMs. […] At 24 hours, the MAPK cascade inhibitor PD 98059 was also added to CAMs topically by means of the filter disks. […] The number of vessel branch points contained in a circular region equal to the area of each filter disk were counted. […] In addition, each experiment was performed 3 times. The resulting angiogenesis index is the mean±SEM of new branch points."}, "[2]": {"system": "matrigel plug angiogenesis", "assay": "Mouse matrigel model of angiogenesis (plug hemoglobin)", "format": "in vivo, mice (C57BL/6NCr)", "experimental": "Normal male mice (C57BL/6NCr) 6-8 weeks of age and weighing ˜20 g were purchased from Taconic farm. Animals were housed 4 per cage, in controlled conditions of temperature (20-24° C.); humidity (60-70%) and 12 hrs. light/dark cycle provided with food and water ad libitum. […] Aliquots of matrigel were placed into cold polypropylene tubes to prevent the matrigel from solidifying and the angiogenesis promoter added to matrigel with or without agonist. Mice were treated daily. Matrigel was subcutaneously injected as triple injection per animal at 100 μL/animal. At day 14 post plug implant all animals were killed in CO2 chamber and matrigel plugs were collected. Plug hemoglobin content was analyzed from three implants/mice (n=6 per group) to measure angiogenesis.\nThe matrigel plugs dissected from the mice were carefully stripped of any remaining peritoneum. The plugs were placed into 0.5 mL tube of ddH2O and homogenized for 5-10 min. […] Absorbance was read with a Microplate Manager ELISA reader at 540 nm. […] Hemoglobin concentration is a reflection of the number of blood vessels in the plugs."}, "[3]": {"system": "doxorubicin-resistant MCF7/R cells", "assay": "Doxorubicin-resistant tumors in nude mice", "format": "in vivo", "experimental": "Mice were injected with doxorubicin-resistant MCF7/R cells (10^6) and after 10 days, they were assigned into groups of seven mice each and challenged with doxorubicin (2 mg/kg) or Tetrac (30 mg/kg) either alone or in combination. Tumor volume was measured every 3 days for up to three weeks."}, "[4]": {"system": "medullary thyroid carcinoma cells implanted in CAM", "assay": "CAM cancer implant model", "format": "in vivo, chick", "details": "1 μg/CAM; n = 8; P<0.01", "description": "The effect of Tetrac versus nanoparticulate Tetrac at 1.0 μg/CAM on tumor angiogenesis and tumor growth of 1×10^6 medullary thyroid carcinoma cells implanted in Matrigel in 7 day-old CAM's was determined 8 days after implantation. […] Data represent mean tumor weight (mg) and tumor hemoglobin (mg/dL)±SEM per treatment group, n=8 per group."}, "[5]": {"system": "GL261 murine brain tumor cells", "assay": "GL261 growth curve, colony forming efficiency and cell size", "format": "cell-based", "experimental": "1×10^5 cells per 25 cm^2 flask at time zero (density 40 cells/mm^2). Three flasks were utilized at each time period. The medium in the flasks was not changed over the duration of the growth curve (unfed cultures). Data were taken daily from day zero to day 11.5 post-seeding and cell numbers, age distributions, and apoptotic percentages were determined. After growth curve shapes (without and with 2 μM Tetrac) were determined, irradiation times at 70 and 270 hour post-seeding were chosen.\nTo obtain exponential and plateau phase cell numbers, we trypsinized ([…] trypsin-EDTA) cells for 5 min at 37° C.\nFor determination of CCDTs, the cell numbers per flask were determined on a daily basis. A four-day interval in the exponential region of growth to obtain the CCDTs, yielding a total of 12 estimations for analysis was utilized. A regression analysis was performed using the (log) of the cell number versus the linear time in days (SigmaPlot, V. 10, Systat Software, Inc., Point Richmond, Calif.). The log slope value and its standard error (SE) were determined, and the SE was converted to the 95% confidence limits using a two-tailed t-table at N−1 degrees of freedom where N is the number of samples. (See Goldstein, A. In: Biostatistics, New York, The MacMillan Co., 1964, p. 140-146)."}, "GL261 cells": {"system": "GL261 cells", "assay": "GL261 potentially lethal damage repair (PLDR)", "format": "cell-based, murine", "experimental": "PLDR was also measured using the 10% survival level in both control and Tetrac treated-cells, and was also done for both exponentially growing and plateau phase cells. The total 10% survival dose was given, and then cells were placed back into the 37° C. incubator for various periods of time. At 0, 0.5, 1.0, 1.5, 2.0, 3.0, 4.0, 6.0, 8.0, and 10.0 hours, flasks were removed, and processed for survival assessment.\nTo investigate the effects of Tetrac on SLDR and PLDR, cells were chosen that had been given a one-hour treatment with Tetrac at two different times, i.e., at 70 and 270 hours post-seeding)."}, "[6]": {"system": "DNA double-strand breaks in U87MG cells", "assay": "U87MG neutral comet assay of DNA double-strand breaks", "format": "cell-based, human", "experimental": "For the comet assay studies of induction and repair of DSBs in U87MG cells, cells were treated as described above. However, for the single dose induction of DSBs doses ranged from 0-30 Gy, and for the study of the repair of DSBs in irradiated cells, a large single dose of 60 Gy requiring approximately 1 h of irradiation time was given. Appropriate temperature controls (on ice) were run to insure that no decrement in survival was produced by the 1 h exposure to 0° C.\nU87MG cells on plastic slides were exposed to 2 nM Tetrac for 1 h at 37° C. These slides were then placed on crushed ice and irradiated with doses from 0 to 75 Gy. Slides were immersed in lysing solution at 50° C. for 2 hours. Slides were washed, and placed into a gel electrophoresis unit. Electrophoresis was carried out at 0.66 V/cm for 25 min. Cells were stained with ethidium bromide and image analysis was done using an epifluoresence microscope at a total magnification of 400×. We also used an excitation filter of 515-535 nm and a barrier filter at 590 nm. The mean tail moment (TM) which is expressed in arbitrary units was then calculated. TM was calculated using a CCD camera and software. Approximately 350 comets were analyzed per condition."}, "human cancer xenografts": {"system": "human cancer xenografts", "details": "in vivo; cited from earlier work"}}, "note": "“Also recorded” adds a separate entry of the source.", "data": [{"smiles": "O=C(O)Cc1cc(I)c(Oc2cc(I)c(O)c(I)c2)c(I)c1", "note": "[Tetrac, tetraiodothyroacetic acid]", "values": [{"measurement": "effect on angiogenesis stimulated by T4-agarose (in words)", "setting": "[1]; T4-agarose 0.1 μmol/L + Tetrac", "value": "inhibited"}, {"measurement": "effect on angiogenesis stimulated by T4 (in words)", "setting": "[1]; Tetrac 0.1 μmol/L, T4 0.1 μmol/L", "value": "inhibited the action of T4"}, {"measurement": "effect of Tetrac alone on angiogenesis (in words)", "setting": "[1]; Tetrac alone", "value": "had no effect on angiogenesis; also recorded: does not stimulate angiogenesis"}, {"measurement": "inhibition in vivo at 10 µg/plug", "setting": "[2]; Mus musculus, FGF 100 ng + test substance 10 μg/plug, numbers are Tetrac analogs of Example 13", "value": "90 ± 13", "unit": "%"}, {"measurement": "inhibition of FGF induced angiogenesis", "setting": "[2]; Tetrac 10 μg", "value": 85, "unit": "%"}, {"measurement": "toxic effect (in words)", "setting": "[3]; Tetrac 30 mg/kg", "value": "without any noticeable toxic effect"}, {"measurement": "doxorubicin-sensitivity in vivo (in words)", "setting": "[3]; Tetrac 30 mg/kg with doxorubicin 2 mg/kg", "value": "not restored"}, {"measurement": "growth of doxorubicin-resistant tumors (in words)", "setting": "[3]; Tetrac 30 mg/kg, up to three weeks", "value": "effective in suppressing the growth of drug resistant tumors"}, {"measurement": "tumor growth (in words)", "setting": "[4]", "value": "effective inhibition"}, {"measurement": "tumor-mediated angiogenesis (in words)", "setting": "[4]", "value": "significant inhibition"}, {"measurement": "CFE (%)", "setting": "[5]; exponential cells (+Tetrac), control 30.6, with feeder cells", "value": 24.2, "unit": "%"}, {"measurement": "size of Tetrac-treated cells relative to control (volumetric data)", "setting": "[5]; exponential phase", "value": 1.4, "unit": "times"}, {"measurement": "size of Tetrac-treated cells relative to control (volumetric data)", "setting": "[5]; plateau phase", "value": 1.9, "unit": "times"}, {"measurement": "inhibition of PLDR by a factor of", "setting": "GL261 cells; exponential cells", "value": 1.9}, {"measurement": "decrease of PLDR expression by a factor of", "setting": "GL261 cells; plateau phase cells", "value": 3.4}, {"measurement": "effect on the slope of the mean tail moment in graded single dose studies (in words)", "setting": "[6]", "value": "did not affect the slope of the mean tail moment"}, {"measurement": "sensitization factor from mean tail moment at 0 Gy", "setting": "[6]", "value": 2.2}, {"measurement": "inhibition of repair of DNA double strand breaks / decrease of repair rate", "setting": "[6]; [(1.00−slope Tetrac/slope control)×100]", "value": 72.5, "unit": "%"}, {"measurement": "slope of time-dependent DSB repair", "setting": "[6]; after 30 Gy of x-rays, control −4.36", "value": "−1.20"}, {"measurement": "systemic toxicity (in words)", "setting": "human cancer xenografts", "value": "have not to-date shown systemic toxicity"}]}]}
